Results reported in patent publication US20240368163A1, “COMPOUNDS AND METHODS FOR MODULATING SPLICING” (REMIX THERAPEUTICS INC., priority 2021, published 2024).

Assays:
Format in all cases: cell-based, human
[1] = test system: HTT; assay: Splicing RT-qPCR assay, HTT mRNA canonical junction (CJ) and alternative junction (AJ); conditions: Homo sapiens, gene panel, CJ qPCR, protocol of Example 142; read-out: HTT IC50 (decrease in CJ mRNA levels)
Summary of the method: (§1)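 Cells: A673 (DMEM/10% FBS) or K562 (IMDM/10% FBS). Dose: 11-pt 3-fold, top 10 uM final, ≤0.25% DMSO, 24 h, 37 °C. Readout: RT-qPCR of CJ/AJ exon junctions, ΔΔCt vs housekeeper and DMSO, RQ to % response.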

[2] = test system: Target C; assay: HiBiT protein abundance assay, Target C; conditions: Homo sapiens, K562, 24 h, Table 13B, modified K562 cells
Summary of the method: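 Cells carrying the HiBiT knock-in were plated at 10000 cells/well, dosed with compound (10-point, 3-fold, 10 μM top final) and incubated 24 hours at 37 °C. Lytic reagent was then added and luminescence read. Percent response fed a 4PL fit for IC50.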

[3] = test system: MYB; assay: Splicing RT-qPCR assay, MYB mRNA canonical junction (CJ) and alternative junction (AJ); conditions: Homo sapiens, gene panel, CJ qPCR, protocol of Example 142; read-out: MYB IC50 (decrease in CJ mRNA levels)
Summary of the method: as §1

[4] = test system: HTT; assay: HiBiT protein abundance assay, HTT; conditions: Homo sapiens, K562, 24 h, Table 13B, modified K562 cells
Summary of the method: (§2)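 Target abundance was measured as HiBiT luminescence after 24 h compound treatment of tagged K562 cells. Responses were normalized between unmodified K562 and DMSO-treated tagged cells, and IC50 taken at the 50% level of a 4PL curve.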

[5] = test system: MYB; assay: HiBiT protein abundance assay, MYB; conditions: Homo sapiens, K562, 24 h, Table 13B, modified K562 cells
Summary of the method: as §2

[6] = test system: SMN2; assay: Splicing RT-qPCR panel, SMN2 canonical junction (CJ) mRNA; conditions: Homo sapiens, gene panel, CJ qPCR, protocol of Example 142; read-out: SMN2 IC50 (decrease in CJ mRNA levels)
Summary of the method: as §1

[7] = test system: Target C; assay: Splicing RT-qPCR panel, Target C canonical junction (CJ) mRNA; conditions: Homo sapiens, gene panel, CJ qPCR, protocol of Example 142; read-out: Target C IC50 (decrease in CJ mRNA levels)
Summary of the method: as §1

Compound	IC50 [1]	IC50 [2]	IC50 [3]	IC50 [4]	IC50 [5]	IC50 [6]	IC50 [7]
COc1nc(-c2ccc(NC3CCNCC3)nn2)ccc1-c1cnn(C)n1 [Compound 933]	> 10 µM	1 to 10 µM	> 10 µM	1 to 10 µM	1 to 10 µM	1 to 10 µM	> 10 µM
COc1nc(-c2ccc(OC3CC(C)(C)NC(C)(C)C3)nn2)ccc1-n1cccn1 [Compound 934]	1 to 10 µM	1 to 10 µM	> 10 µM	1 to 10 µM	1 to 10 µM	1 to 10 µM	> 10 µM
COc1nc(-c2ccc(N(C)C3CC(C)(C)NC(C)(C)C3)nn2)ccc1-n1cccn1 [Compound 935]	0.1 to 1 µM	0.1 to 1 µM	0.1 to 1 µM	0.1 to 1 µM	0.1 to 1 µM	0.1 to 1 µM	0.1 to 1 µM
CNc1nc(-c2ccc(N(C)[C@@H]3C[C@H]4CC[C@@H](C3)N4)nn2)ccc1-c1cn[nH]c1 [Compound 936]	0.1 to 1 µM	0.1 to 1 µM	1 to 10 µM	0.1 to 1 µM	0.1 to 1 µM	< 0.1 µM	0.1 to 1 µM
CC(C)Oc1nc(-c2ccc(N(C)[C@@H]3C[C@H]4CC[C@@H](C3)N4)nn2)ccc1-c1cn[nH]c1 [Compound 937]	0.1 to 1 µM	1 to 10 µM	0.1 to 1 µM	0.1 to 1 µM	0.1 to 1 µM	< 0.1 µM	1 to 10 µM
CN(C)c1nc(-c2ccc(N(C)[C@@H]3C[C@H]4CC[C@@H](C3)N4)nn2)ccc1-c1cn[nH]c1 [Compound 938]	1 to 10 µM	1 to 10 µM	> 10 µM	1 to 10 µM	1 to 10 µM	1 to 10 µM	1 to 10 µM
COc1nc(-c2ccc(NC3CCNCC3)nn2)ccc1-n1cccn1 [Compound 941]	> 10 µM	> 10 µM	> 10 µM	> 10 µM	> 10 µM	1 to 10 µM	> 10 µM
COc1nc(-c2ccc(N[C@@H]3C[C@H]4CC[C@@H](C3)N4)nn2)ccc1-c1cnn(C)n1 [Compound 942]	1 to 10 µM	0.1 to 1 µM	> 10 µM	< 0.1 µM	0.1 to 1 µM	< 0.1 µM	1 to 10 µM
COc1nc(-c2ccc(O[C@@H]3C[C@H]4CC[C@@H](C3)N4)nn2)ccc1-c1cn(C)nn1 [Compound 943]	1 to 10 µM	> 10 µM	> 10 µM	1 to 10 µM	1 to 10 µM	> 10 µM	> 10 µM
COc1nc(-c2ccc(N[C@@H]3C[C@H]4CC[C@@H](C3)N4)nn2)ccc1-c1cn(C)nn1 [Compound 944]	0.1 to 1 µM	1 to 10 µM	1 to 10 µM	1 to 10 µM	0.1 to 1 µM	0.1 to 1 µM	1 to 10 µM
COc1nc(-c2ccc(N(C)[C@@H]3C[C@H]4CC[C@@H](C3)N4)nn2)ccc1-c1cn(C)nn1 [Compound 945]	0.1 to 1 µM	0.1 to 1 µM	1 to 10 µM	0.1 to 1 µM	0.1 to 1 µM	< 0.1 µM	1 to 10 µM
COc1nc(-c2ccc(OC3CC(C)(C)NC(C)(C)C3)nn2)ccc1-c1cn(C)nn1 [Compound 946]	1 to 10 µM	> 10 µM	1 to 10 µM	1 to 10 µM	1 to 10 µM	0.1 to 1 µM	> 10 µM
COc1nc(-c2ccc(N[C@@H]3C[C@H]4CC[C@@H](C3)N4)nn2)ccc1-n1cccn1 [Compound 948]	0.1 to 1 µM	0.1 to 1 µM	1 to 10 µM	0.1 to 1 µM	0.1 to 1 µM	0.1 to 1 µM	1 to 10 µM
COc1nc(-c2ccc(OC3CC4CCC(C3)N4)nn2)ccc1-n1cccn1 (stereo not drawn) [Compound 949]	1 to 10 µM	1 to 10 µM	> 10 µM	1 to 10 µM	1 to 10 µM	1 to 10 µM	> 10 µM
COc1nc(-c2ccc(N(C)[C@@H]3C[C@H]4CC[C@@H](C3)N4)nn2)ccc1-c1cnc(C)cn1 [Compound 950]	0.1 to 1 µM	0.1 to 1 µM	0.1 to 1 µM	0.1 to 1 µM	0.1 to 1 µM	< 0.1 µM	1 to 10 µM
